System: SK-OV-3 tumor lines
Test: SK-OV-3 tumor in nude mouse, average tumor weight
Type: in vivo
Description: 2-Methoxycarbonylamino-4,5,6,7-tetrafluorobenzimidazole (tetrafluoro) was used to treat SK-OV-3 tumor lines in nude mouse. The average tumor weight is reported in mg. The control was the vehicle given twice a week and also 5 times a week. The 2-methoxycarbonyl-amino-4,5,6,7- tetrafluorobenzimidazole was also given on this same schedule. Both compounds were administered by oral gavage.

## COC(=O)Nc1nc2c(F)c(F)c(F)c(F)c2[nH]1 [Tetrafluoro, 2-Methoxycarbonylamino-4,5,6,7-tetrafluorobenzimidazole]
2000 mg/kg 2x wkly, oral gavage, day 1
  Average Tumor Weight: 58.5 mg
2000 mg/kg 2x wkly, oral gavage, day 5
  Average Tumor Weight: 108.1 mg
2000 mg/kg 2x wkly, oral gavage, day 9
  Average Tumor Weight: 246.8 mg
2000 mg/kg 2x wkly, oral gavage, day 12
  Average Tumor Weight: 476.2 mg
2000 mg/kg 2x wkly, oral gavage, day 15
  Average Tumor Weight: 770 mg
2000 mg/kg qdx5, oral gavage, day 1
  Average Tumor Weight: 59.1 mg
2000 mg/kg qdx5, oral gavage, day 5
  Average Tumor Weight: 106.2 mg
2000 mg/kg qdx5, oral gavage, day 9
  Average Tumor Weight: 255.8 mg
2000 mg/kg qdx5, oral gavage, day 12
  Average Tumor Weight: 381.7 mg
2000 mg/kg qdx5, oral gavage, day 15
  Average Tumor Weight: 781.2 mg
4000 mg/kg 2x wkly, oral gavage, day 1
  Average Tumor Weight: 59.5 mg
4000 mg/kg 2x wkly, oral gavage, day 5
  Average Tumor Weight: 98.6 mg
4000 mg/kg 2x wkly, oral gavage, day 9
  Average Tumor Weight: 204 mg
4000 mg/kg 2x wkly, oral gavage, day 12
  Average Tumor Weight: 336.6 mg
4000 mg/kg 2x wkly, oral gavage, day 15
  Average Tumor Weight: 672.9 mg
4000 mg/kg qdx5, oral gavage, day 1
  Average Tumor Weight: 59.5 mg
4000 mg/kg qdx5, oral gavage, day 5
  Average Tumor Weight: 66.1 mg
4000 mg/kg qdx5, oral gavage, day 9
  Average Tumor Weight: 150.8 mg
4000 mg/kg qdx5, oral gavage, day 12
  Average Tumor Weight: 160.7 mg
4000 mg/kg qdx5, oral gavage, day 15
  Average Tumor Weight: 315.8 mg
SK-OV-3 tumor, nude mouse, oral gavage
  effect on the growth of the tumor: dose responsive effect
